Converted amounts (≈) assume the structure as drawn. Where two headings read alike, the source gives them in different places.
Key:
[1] = tested on: Escherichia coli TEM; experiment: MIC, standard agar-dilution assay (Table IX); assay type: cell-based; conditions: read-out: MIC
[2] = tested on: Escherichia coli N10; experiment: MIC, standard agar-dilution assay (Table IX); assay type: cell-based; conditions: read-out: MIC
[3] = tested on: Klebsiella X26; experiment: MIC, standard agar-dilution assay (Table IX); assay type: cell-based; conditions: read-out: MIC
[4] = tested on: Streptococcus pyogenes C203; experiment: MIC, standard agar-dilution assay (Table IX); assay type: cell-based; conditions: read-out: MIC
[5] = tested on: Staphylococcus aureus S13E; experiment: MIC, standard agar-dilution assay (Table IX); assay type: cell-based; conditions: Staphylococcus aureus, S13E
[6] = tested on: Staphylococcus epidermidis EPI1; experiment: MIC, standard agar-dilution assay (Table IX); assay type: cell-based; conditions: Staphylococcus epidermidis EPI1; agar-dilution; read-out: MIC
[7] = tested on: Staphylococcus epidermidis 222; experiment: MIC, standard agar-dilution assay (Table IX); assay type: cell-based; conditions: read-out: MIC
[8] = tested on: Streptococcus Group D 2041; experiment: MIC, standard agar-dilution assay (Table IX); assay type: cell-based; conditions: GROUPD2041, read-out: MIC
[9] = Titratable groups in 66% aqueous DMF (Tables XIV-XVI); assay type: physicochemical
Text: ^c Run in 66% aqueous DMF
^d Run in 66% aqueous DMF

[10] = tested on: Staphylococcus aureus X400; experiment: MIC, standard agar-dilution assay (Table IX); assay type: cell-based; conditions: Staphylococcus aureus X400, Methicillin-resistant strain, read-out: MIC
[11] = tested on: Pasteurella multocida; experiment: Pasteurella infection in one-day-old chicks, medicated drinking water (Table XIII); assay type: in vivo; conditions: Administered in the available drinking water at 2 g/gal
Method: Many of the C-20 modified derivatives of this invention have also shown in vivo antibacterial activity against infections induced by gram-negative bacteria. Tables XII and XIII summarize the results of tests in which illustrative compounds were evaluated against a Pasteurella infection in one-day-old chicks. The compounds were administered parenterally or orally after challenge of the chicks with Pasteurella multocida (0.1 ml of a 10^-4 dilution of a twenty-hour tryptose broth culture of an avian P. multocida given subcutaneously). In these tests, unless indicated otherwise, all non-medicated infected chicks died within 24 hours of Pasteurella challenge. In the tests summarized in Table XII, the compounds were administered by subcutaneous injection at a dosage of 30 mg/kg, 1 and 4 hours post-challenge of the chicks with P. multocida. In the tests summarized in Table XIII the compounds were administered in medicated drinking water (at a level of 2 g/gal) available from 4 to 20 hours prior to challenge of the chicks with P. multocida and during the 3 -day test period.
^a Administered in the available drinking water at a concentration of […]

[12] = tested on: Staphyloccus aureus X1.1; experiment: MIC, standard agar-dilution assay (Table IX); assay type: cell-based, Staphylococcus aureus; conditions: Staphylococcus aureus, read-out: MIC
[13] = tested on: Streptococcus pneumoniae Park I; experiment: MIC, standard agar-dilution assay (Table IX); assay type: cell-based; conditions: Streptococcus pneumoniae Park I; agar-dilution; read-out: MIC
[14] = tested on: Streptococcus pyogenes C203; experiment: ED50 in mice experimentally infected with S. pyogenes C203 (Table XI); assay type: in vivo; conditions: Streptococcus pyogenes, doses given 1 and 4 hours postinfection, read-out: ED50
In short: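 Protective ED50 (mg/kg × 2) was determined as the dose sparing half the animals. Test compound was given twice, at 1 and 4 hours after experimental S. pyogenes C203 infection of mice.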

[15] = tested on: Streptococcus Group D X66; experiment: MIC, standard agar-dilution assay (Table IX); assay type: cell-based; conditions: read-out: MIC
[16] = tested on: Escherichia coli EC14; experiment: MIC, standard agar-dilution assay (Table IX); assay type: cell-based; conditions: read-out: MIC
[17] = tested on: Haemophilus influenzae 76; experiment: MIC, standard agar-dilution assay (Table IX); assay type: cell-based; conditions: Haemophilus influenzae 76, Ampicillin-resistant strain, read-out: MIC
[18] = tested on: Pasteurella multocida; experiment: Pasteurella infection in one-day-old chicks, subcutaneous administration (Table XII); assay type: in vivo; conditions: Administered subcutaneously, 30 mg/kg × 2, 1 and 4 hours post-challenge
In short: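 Treatment was 30 mg/kg s.c., given twice (1 and 4 h after infection). The infection itself was induced in day-old chicks by s.c. injection of 0.1 ml of avian Pasteurella multocida culture (20-h tryptose broth, diluted 10^-4).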

[19] = tested on: Staphylococcus aureus V41; experiment: MIC, standard agar-dilution assay (Table IX); assay type: cell-based; conditions: Staphylococcus aureus V41, Penicillin-resistant strain, read-out: MIC
[20] = tested on: Mycoplasma synoviae 40A; experiment: MIC, broth-dilution microtiter test (Table X); assay type: cell-based; conditions: Mycoplasmopsis synoviae, read-out: MIC
Text: (§1) The MIC's in Table X were obtained using conventional broth-dilution microtiter tests.

[21] = tested on: Pasteurella hemolytica 22C; experiment: MIC, broth-dilution microtiter test (Table X); assay type: cell-based; conditions: read-out: MIC
Text: as §1

[22] = tested on: Streptococcus sp. 19F; experiment: MIC, broth-dilution microtiter test (Table X); assay type: cell-based; conditions: read-out: MIC
Text: as §1

[23] = tested on: Mycoplasma hyopneumoniae S5972; experiment: MIC, broth-dilution microtiter test (Table X); assay type: cell-based; conditions: Mesomycoplasma hyopneumoniae, read-out: MIC
Text: as §1

[24] = tested on: Mycoplasma hyorhinis 29E; experiment: MIC, broth-dilution microtiter test (Table X); assay type: cell-based; conditions: read-out: MIC
Text: as §1

[25] = tested on: Pasteurella multocida 17E; experiment: MIC, broth-dilution microtiter test (Table X); assay type: cell-based; conditions: Bovine isolate, read-out: MIC
Text: as §1

[26] = tested on: Staphylococcus aureus; experiment: MIC, broth-dilution microtiter test (Table X); assay type: cell-based; conditions: read-out: MIC
Text: as §1

[27] = tested on: Pasteurella multocida 60A; experiment: MIC, broth-dilution microtiter test (Table X); assay type: cell-based; conditions: Avian isolate, read-out: MIC
Text: as §1

[28] = tested on: Mycoplasma gallisepticum 29C; experiment: MIC, broth-dilution microtiter test (Table X); assay type: cell-based; conditions: Mycoplasmoides gallisepticum, read-out: MIC
Text: as §1

[29] = tested on: Haemophilus influenzae C.L.; experiment: MIC, standard agar-dilution assay (Table IX); assay type: cell-based; conditions: Ampicillin-sensitive strain, read-out: MIC
[30] = Titratable groups (first value)

Compound	MIC [1] [mg/L]	MIC [2] [mg/L]	MIC [3] [mg/L]	MIC [4] [mg/L]	MIC [5] [mg/L]	MIC [6] [mg/L]	MIC [7] [mg/L]	MIC [8] [mg/L]	pKa ([9]; Titratable groups)	pKa [9, 30]	MIC [10] [mg/L]	Number of Deaths/Number Treated [11]	MIC [12] [mg/L]	MIC [13] [mg/L]	ED50 ([14]; C203, Oral) [mg/kg]	ED50 ([14]; C203, sc, Subcutaneous) [mg/kg]	MIC [15] [mg/L]	MIC [16] [mg/L]	MIC [17] [mg/L]	Number of Deaths/Number Treated [18]	also measured
CCC1OC(=O)CC(O)C(C)C(OC2OC(C)C(O)C(N(C)C)C2O)C(CCN2CCCC2)CC(C)C(=O)C=CC(C)=CC1COC1OC(C)C(O)C(OC)C1OC (centres unmarked) [Compound D1, 20-DH-DO-20-(pyrrolidin-1-yl)desmycosin]	128 (≈ 155 µM)	> 128	16 (≈ 19.3 µM)	1 (≈ 1.21 µM)	2 (≈ 2.42 µM)	2 (≈ 2.42 µM)	1 (≈ 1.21 µM)	16 (≈ 19.3 µM)	9.5	7.9	2 (≈ 2.42 µM)	9/10	2 (≈ 2.42 µM)	0.5 (≈ 0.605 µM)	> 50	1.2	32 (≈ 38.7 µM)	> 128	16 (≈ 19.3 µM)	0/10	MIC [19]: 2 mg/L (≈ 2.42 µM); MIC [20]: 0.39 mg/L (≈ 0.472 µM); MIC [21]: 6.25 mg/L (≈ 7.56 µM); MIC [22]: 6.25 mg/L (≈ 7.56 µM); MIC [23]: 12.5 mg/L (≈ 15.1 µM); MIC [24]: 50 mg/L (≈ 60.5 µM); MIC [25]: 6.25 mg/L (≈ 7.56 µM); MIC [26]: 0.78 mg/L (≈ 0.943 µM); MIC [27]: 6.25 mg/L (≈ 7.56 µM); MIC [28]: 12.5 mg/L (≈ 15.1 µM); MIC [29]: 16 mg/L (≈ 19.3 µM)
CCC1OC(=O)CC(O)C(C)C(OC2OC(C)C(O)C(N(C)C)C2O)C(CCN2CCCCC2)CC(C)C(=O)C=CC(C)=CC1COC1OC(C)C(O)C(OC)C1OC (centres unmarked) [Compound D2, 20-DH-DO-20-(piperidin-1-yl)desmycosin]	16 (≈ 19 µM)	> 128	16 (≈ 19 µM)	0.25 (≈ 0.297 µM)	0.5 (≈ 0.594 µM)	1 (≈ 1.19 µM)	0.5 (≈ 0.594 µM)	16 (≈ 19 µM)	9.1	7.8	1 (≈ 1.19 µM)	5/10	0.5 (≈ 0.594 µM)	0.25 (≈ 0.297 µM)	50	0.9	16 (≈ 19 µM)	> 128	16 (≈ 19 µM)	0/10	MIC [19]: 0.5 mg/L (≈ 0.594 µM); MIC [20]: 0.78 mg/L (≈ 0.927 µM); MIC [21]: 3.12 mg/L (≈ 3.71 µM); MIC [22]: 6.25 mg/L (≈ 7.43 µM); MIC [23]: 12.5 mg/L (≈ 14.9 µM); MIC [24]: > 50 mg/L; MIC [25]: 25 mg/L (≈ 29.7 µM); MIC [26]: 0.78 mg/L (≈ 0.927 µM); MIC [27]: 6.25 mg/L (≈ 7.43 µM); MIC [28]: 3.12 mg/L (≈ 3.71 µM); MIC [29]: 16 mg/L (≈ 19 µM)

— patent US4820695A, “C-20-dihydro-deoxy-(cyclic amino)-derivatives of macrolide antibiotics” (priority 1987, dated 1989)
